According to US20130225611A1, “Compositions and Methods for Reducing Cancer Cell Proliferation and Modulating Importin-Beta Function” (THE REGENTS OF THE UNIVERSITY OF CALIFORNIA, priority 2011, published 2013):

Tests used:
[1] = test system: CRM1-mediated export of NFAT-GFP; experiment: NFAT-GFP nuclear export after ionomycin washout in HEK 293 cells; assay type: cell-based, human; settings: HEK 293, importazole 40 μM, leptomycin B 10 ng/ml, 1 hour after ionomycin washout
Method: For all import and export experiments, HEK 293 cells stably expressing NFAT-GFP were grown on glass coverslips to approximately 50% confluency prior to drug treatment. In all cases, importazole was used at 40 μM and leptomycin B was used at 10 ng/ml. For controls, DMSO was used at a concentration of 0.4%. Ionomycin was added at 1.25 μM. Importazole and leptomycin B treatments were all for 1 hour. In all experiments cells were fixed with 4% formaldehyde prior to fluorescence microscopy. DNA was visualized with 1 μg/ml Hoechst dye.

[2] = test system: spindle assembly around sperm chromosomes; experiment: spindle assembly in metaphase-arrested Xenopus egg extracts; parameters: species or system Xenopus laevis; settings: 100 μM importazole
Excerpt: In order to determine whether importazole also disrupts mitosis, importazole was first tested in metaphase-arrested Xenopus egg extracts, which rely heavily on a RanGTP gradient for spindle assembly around sperm chromosomes. […] The effect was similar to that of adding a truncated importin-β (amino acids 71-876), a version that no longer binds to RanGTP and therefore sequesters its cargoes. […] Thus, importazole caused dramatic effects on spindle assembly consistent with the known role of the importin-β/RanGTP pathway in the Xenopus egg extract system, and is not a general microtubule inhibitor.
Xenopus laevis egg extracts were prepared as described by Hannak et al. (2006) Nat. Protoc. 1:2305-2314. For in vitro spindle assembly, Xenopus laevis sperm DNA was added to egg extracts supplemented with rhodamine-labeled tubulin. Asters were formed by addition of 5% DMSO. DNA was stained with Hoechst dye. The formation of microtubule-based structures was assessed using epifluorescence microscopy after a 30-minute room temperature incubation. In vitro microtubule polymerization and pelleting assays were performed by incubating 25 μM bovine tubulin, 1 mM GTP, and 5% DMSO in BRB80 buffer (80 mM PIPES, 1 mM MgCl2, 1 mM EGTA, pH 6.8) at 37° C. for 30 minutes. Polymerized microtubules were pelleted through a sucrose cushion, resuspended, and analyzed by SDS PAGE.

| Compound | CRM1-mediated export of NFAT-GFP [1] | sperm nuclei at which normal bipolar microtubule structures were prevented from forming [2] |
| --- | --- | --- |
| CCC(=C/[C@H](C)C/C=C/C(C)=C/[C@@H](C)C(=O)[C@@H](C)[C@H](O)[C@@H](C)C/C(C)=C/C(=O)O)/C=C/[C@@H]1OC(=O)C=C[C@@H]1C [leptomycin B, reference compound] | blocked |  |
| truncated importin-β (amino acids 71-876): truncated importin-β that no longer binds to RanGTP and therefore sequesters its cargoes |  | similar |
